The record followed here is ChEMBL document CHEMBL6109124, “Identification of effective anti-osteosarcoma agents via screening of an in-house NQO1-targeted compound library” (Bioorg Med Chem, 2025).

The test system of series [1] is HOS-TE85. Briefly: Cytotoxicity against human MNNG cells assessed as cell growth inhibition measured after 72 hrs by MTT assay. Format: functional, cell-based. Conditions: HOS-TE85, 72 h. On the technique in general: Tetrazolium dyes change colour on reduction, which living cells bring about.
The nature of series [2]: Cytotoxicity against HUVEC assessed as cell growth inhibition measured after 72 hrs by MTT assay. As to conditions: human, HUVEC cells. In kind it is toxicity, cell-based.
A short description of series [3]: Selectivity index, ratio of IC50 for cytotoxicity against HUVEC to IC50 for cytotoxicity against human MNNG cells. As to conditions: HUVEC and human MNNG cells, read-out: Ratio IC50. Format: toxicity, cell-based.
Series [4] is described as follows: Toxicity in human MNNG cell xenografted Balb/c mouse assessed as body weight loss at 30 mg/kg, iv administered every 2 days for 3 weeks and measured every other day during compound dosing. Format: organism-based. Conditions: in vivo, 504 h, time 21 day. (A xenograft is tissue or cells of one species grown in another, often human tumour cells in immunodeficient mice.)

Series [5] relates to HOS-TE85. The experiment in a line: Antitumor activity against human MNNG cells xenografted in Balb/c mouse assessed as tumor growth inhibition at 30 mg/kg, iv administered every 2 days for 3 weeks and measured daily during compound dosing relative to control. In kind it is functional. Conditions: HOS-TE85, 504 h, time 21 day, read-out: TGI.
Series [6] is described as follows: Toxicity in human MNNG cell xenografted Balb/c mouse assessed as reduction in AST level at 30 mg/kg, iv administered every 2 days for 3 weeks and measured post last dose. In kind it is organism-based. As to conditions: in vivo, 504 h, time 21 day.
Series [7] in a line: Toxicity in human MNNG cell xenografted Balb/c mouse assessed as reduction in Cr level at 30 mg/kg, iv administered every 2 days for 3 weeks and measured post last dose. Format: organism-based. As to conditions: in vivo, 504 h, time 21 day.

Regarding `CC1(C)CCC2=C(O1)c1ccccc1C(=O)C2=O` [LAPACHONE], the IC50 in series [1] amounted to 2.42 µM. The IC50 at 72 h in series [2] was determined as 12.5 µM. Also, the selectivity ratio in series [3] is 5.16. For the same compound, the figures for the Activity entry in series [4], in series [6] and in series [7] were “Non-toxic”, “Toxic” and “Toxic”, respectively. Besides, in series [5], the inhibition in vivo at 30 mg/kg stood at 58.9%.

The IC50 is the concentration at which inhibition is half-maximal.
